Laboratory results reported in patent US8975241B2, “Composition for treating and preventing obesity including high water-soluble 2-hydroxypropyl-betacyclodextrin as effective component” (Song Ho Biomed Co., Ltd., priority 2009, dated 2015).

What was measured:
Assay type in all cases: in vivo
[1] = system: normal mouse (ICR); assay: Oral maltose tolerance test; settings: for Rate of Suppression (%): vs control group
Procedure: An oral maltose tolerance test system is to predict whether or not a sample has an effect on suppressing a sharp increase of blood sugar induced by intaking maltose after an oral-administration of the sample to a mouse.
A normal mouse [ICR, 6W, Coretech Inc., Korea] was accommodated for 1 week, and then approximately 18˜20 g female with 7 age of the week mouse was used. 6 mice were assigned for one experimental group and starved for 16 hours to use. HPBCD was dissolved in sterilized distilled water to be 20% (W/V) concentration, and then oral-administered in 0.2 mL per 20 g body weight of a mouse. And then, the maltose dissolved in physiological saline was oral-administered to mice in a liquid amount of 10 ml/kg to inject 2 g/kg after 15, 30, 60, and 90 minutes, respectively. The levels of blood sugars were measured just before administering maltose (0 hour), and at 15, 60, and 120 minutes after administering maltose. Blood for measuring blood sugar was collected from orbital venous of the mouse using a capillary tube. The blood sugar in the collected blood was measured using a measuring instrument, […] ALPHA (Boehringer mannheim Co.). The same amount of sterilized distilled water was administered for the control group.

[2] = system: high fat diet-mouse; assay: Amount of feed intake by oral administration in high fat diet-mouse
Procedure: (§1) Male C57BL/6J mice (Five age of the week, KRIBB, Korea) were accommodated for 1 week. And then, the weights of the animals were equally divided into 5 animals as one group. While a high fat diet (60% fat kcal) was provided, sterilized distilled water and HPBCDs with 10, 20, and 40% (W/V) were orally administered at three times (Morning, Afternoon, Evening) a day for 5 days in 0.2 ml per 20 g body weight of a mouse at the same time. A change in body weight was measured to all of the animals during the test at one time per day; the fixed amount of feeds was provided at the day of measuring body weight, and then an average amount of intake per an animal (g/mouse/day) was calculated by measuring a residual amount of feeds at the next day.

[3] = system: high fat diet-mouse; assay: Change in body weight by oral administration in high fat diet-mouse
Procedure: as §1
A body weight was measured by using the same conditions as the above <Example 3>, except that BCDs with 10 and 20% (W/V) concentrations were used instead of HPBCDs with 10, 20, and 40% (W/V) concentrations.
A change in body weight was measured during the test using α-CD instead of HPBCD in the same method as the above <Example 3>.

[4] = 20% (W/V) oral (−)15 min. before maltose 2 g/kg
[5] = 20% (W/V) oral (−)30 min. before maltose 2 g/kg
[6] = 20% (W/V) oral (−)60 min. before maltose 2 g/kg
[7] = 20% (W/V) oral (−)90 min. before maltose 2 g/kg
[8] = 10% (w/v) oral three times a day, 1 Day
[9] = 10% (w/v) oral three times a day, 2 Day
[10] = 10% (w/v) oral three times a day, 3 Day
[11] = 10% (w/v) oral three times a day, 4 Day
[12] = 10% (w/v) oral three times a day, 5 Day
[13] = 20% (w/v) oral three times a day, 1 Day
[14] = 20% (w/v) oral three times a day, 2 Day
[15] = 20% (w/v) oral three times a day, 3 Day
[16] = 20% (w/v) oral three times a day, 4 Day
[17] = 20% (w/v) oral three times a day, 5 Day
[18] = 40% (w/v) oral three times a day, 1 Day
[19] = 40% (w/v) oral three times a day, 2 Day
[20] = 40% (w/v) oral three times a day, 3 Day
[21] = 40% (w/v) oral three times a day, 4 Day
[22] = 40% (w/v) oral three times a day, 5 Day

2-hydroxypropyl-β-cyclodextrin [HPBCD]
Increasing Amount of Blood Sugar (15 min.~0 hour) [1, 4]: 189.7 mg/dL
Level of Blood Sugar Before and After Administration of Maltose (mg/dl), 0 hour [1, 4]: 83.2 mg/dL
Level of Blood Sugar Before and After Administration of Maltose (mg/dl), 15 min. [1, 4]: 272.8 mg/dL
Rate of Suppression (%) [1, 4]: 38.6%
Increasing Amount of Blood Sugar (15 min.~0 hour) [1, 5]: 164.8 mg/dL
Level of Blood Sugar Before and After Administration of Maltose (mg/dl), 0 hour [1, 5]: 87.2 mg/dL
Level of Blood Sugar Before and After Administration of Maltose (mg/dl), 15 min. [1, 5]: 252.0 mg/dL
Rate of Suppression (%) [1, 5]: 46.7%
Increasing Amount of Blood Sugar (15 min.~0 hour) [1, 6]: 171.3 mg/dL
Level of Blood Sugar Before and After Administration of Maltose (mg/dl), 0 hour [1, 6]: 86.2 mg/dL
Level of Blood Sugar Before and After Administration of Maltose (mg/dl), 15 min. [1, 6]: 257.5 mg/dL
Rate of Suppression (%) [1, 6]: 44.6%
Increasing Amount of Blood Sugar (15 min.~0 hour) [1, 7]: 186.2 mg/dL
Level of Blood Sugar Before and After Administration of Maltose (mg/dl), 0 hour [1, 7]: 77.7 mg/dL
Level of Blood Sugar Before and After Administration of Maltose (mg/dl), 15 min. [1, 7]: 264.2 mg/dL
Rate of Suppression (%) [1, 7]: 39.6%
blood sugar caused by intaking maltose suppressed as compared with the control group ([1]; oral, all pre-treatment times): 38˜47%
Amount of Feed Intake (g/mouse/day) [2, 8]: 3.0 ± 0.2 g/mouse/day
Amount of Feed Intake (g/mouse/day) [2, 9]: 2.8 ± 0.3 g/mouse/day
Amount of Feed Intake (g/mouse/day) [2, 10]: 2.9 ± 0.5 g/mouse/day
Amount of Feed Intake (g/mouse/day) [2, 11]: 2.7 ± 0.5 g/mouse/day
Amount of Feed Intake (g/mouse/day) [2, 12]: 2.7 ± 0.5 g/mouse/day
amount of dietary intake ([2]; 10, 20, 40% (W/V) oral): temporary effect on decreasing an amount of dietary intake
Amount of Feed Intake (g/mouse/day) [2, 13]: 2.4 ± 0.4 g/mouse/day
Amount of Feed Intake (g/mouse/day) [2, 14]: 2.1 ± 0.4 g/mouse/day
Amount of Feed Intake (g/mouse/day) [2, 15]: 2.5 ± 0.4 g/mouse/day
Amount of Feed Intake (g/mouse/day) [2, 16]: 2.6 ± 0.2 g/mouse/day
Amount of Feed Intake (g/mouse/day) [2, 17]: 2.1 ± 0.4 g/mouse/day
Amount of Feed Intake (g/mouse/day) [2, 18]: 1.8 ± 0.5 g/mouse/day
Amount of Feed Intake (g/mouse/day) [2, 19]: 2.0 ± 0.5 g/mouse/day
Amount of Feed Intake (g/mouse/day) [2, 20]: 2.7 ± 0.6 g/mouse/day
Amount of Feed Intake (g/mouse/day) [2, 21]: 2.5 ± 0.3 g/mouse/day
Amount of Feed Intake (g/mouse/day) [2, 22]: 2.6 ± 0.3 g/mouse/day
Body weight as percent of initial body weight ([3]; 10% (w/v) oral three times a day, 0 Day): 100.0 ± 0.0%
Body weight as percent of initial body weight [3, 8]: 99.3 ± 0.9 %
Body weight as percent of initial body weight [3, 9]: 98.5 ± 1.3 %
Body weight as percent of initial body weight [3, 10]: 98.4 ± 1.2 %
Body weight as percent of initial body weight [3, 11]: 98.3 ± 1.2 %
Body weight as percent of initial body weight [3, 12]: 98.7 ± 2.0 %
body weight as compared with the control group ([3]; 10, 20, 40% (W/V) oral): decreased depending on the concentrations
body weight as compared with the initial body weight ([3]; 10, 20, 40% (W/V) oral): significantly decreased
Body weight as percent of initial body weight ([3]; 20% (w/v) oral three times a day, 0 Day): 100.0 ± 0.0%
Body weight as percent of initial body weight [3, 13]: 97.1 ± 1.0 %
Body weight as percent of initial body weight [3, 14]: 95.6 ± 1.1 %
Body weight as percent of initial body weight [3, 15]: 95.8 ± 1.3 %
Body weight as percent of initial body weight [3, 16]: 96.6 ± 1.0 %
Body weight as percent of initial body weight [3, 17]: 95.7 ± 1.5 %
Body weight as percent of initial body weight ([3]; 40% (w/v) oral three times a day, 0 Day): 100.0 ± 0.0%
Body weight as percent of initial body weight [3, 18]: 95.0 ± 2.2 %
Body weight as percent of initial body weight [3, 19]: 93.1 ± 3.4 %
Body weight as percent of initial body weight [3, 20]: 93.5 ± 3.4 %
Body weight as percent of initial body weight [3, 21]: 94.3 ± 2.9 %
Body weight as percent of initial body weight [3, 22]: 94.1 ± 1.9 %
